Test results reported in publication PMC6594058, “A Research‐inspired biochemistry laboratory module–combining expression, purification, crystallization, structure‐solving, and characterization of a flavodoxin‐like protein” (Biochemistry and Molecular Biology Education, 2019).

Biological target: T1, NrdI (Bacillus cereus, UniProt Q81G57)
T1 construct: untagged by purification route (IEX, SEC); pET-22b(+) XbaI/HindIII; E. coli BL21(DE3)
T1 sequence (Q81G57 1-119): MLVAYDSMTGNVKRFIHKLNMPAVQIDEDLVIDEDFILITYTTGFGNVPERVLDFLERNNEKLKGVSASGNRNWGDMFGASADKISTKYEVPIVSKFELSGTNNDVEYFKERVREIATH
Test: X-ray crystallography (students re-solve previously collected semiquinone data); UV-vis of co-purified cofactor with dithionite titration
Format: binding
Conditions: crystal in semiquinone state (FMNH•); 1.15 Å; UV-vis in 50 mM Tris-HCl pH 7.5; native bound cofactor

Structure (SMILES): Cc1cc2nc3c(=O)[nH]c(=O)nc-3n(C[C@H](O)[C@H](O)[C@H](O)COP(=O)(O)O)c2cc1C [FMN]
- X-ray crystallography (students re-solve previously collected semiquinone data);: Overall structure of the B. cereus NrdI, with the FMN cofactor represented as sticks
